This is an account of results in PMC2783333 (Nature chemical biology, 2009).

Like-named read-outs stand apart in the source and are kept apart here.

Assay [1] concerns MARTXVc CPD. Conditions: cited from earlier work.
Assay [2] relates to P. luminescens TTO1 MARTX CPDs (Plu3217, Plu3324, Plu1341, Plu1344). It counts as biochemical, Photorhabdus luminescens.
The subject of assay [3] is MARTXVc CPD. It counts as biochemical, Vibrio cholerae. Conditions: read-out: AC50 (InsP6 for 50% cleavage).
Assay [4] has as its target V. vulnificus CMCP6 VV20479 MARTX CPD (Vibrio vulnificus, UniProt A0A2S3R7M0). Type of assay: biochemical. Conditions: 10 µM InsP6.

As for `Nc1nc2c(ncn2[C@@H]2O[C@H](COP(=O)(O)OP(=O)(O)OP(O)(O)=S)[C@@H](O)[C@H]2O)c(=O)[nH]1` [GTPγS, guanosine 5′-[γ-thio]triphosphate], the “potency as activator of the CPD” value with MARTXVc CPD [1] is “much less potent activator”.
For orientation: AC50 means the concentration at which the activity in the assay is half-maximal. For the molecule `O=P(O)(O)OC1C(OP(=O)(O)O)C(OP(=O)(O)O)C(OP(=O)(O)O)C(OP(=O)(O)O)C1OP(=O)(O)O` (centres unmarked) [InsP6, inositol hexakisphosphate], the InsP6-dependent autoprocessing entry in assay [2] and in assay [4] was “underwent InsP6-dependent autoprocessing” each time. The concentration at half-maximal activity (AC50) in the assay on MARTXVc CPD [3] was 0.76 ± 0.27 nM; in the assay with MARTXVc CPD [1] (read-out: AC50 (InsP6 for half-maximal autocleavage)), 0.91 ± 0.1 nM.
